{
  "source": "patent US20060084704A1",
  "about": "“Methods and compositions for enhancing degradation of nuclear receptor transcription factors and uses thereof” (priority 2004, published 2006)",
  "biological_target": "T1, AR (Homo sapiens, UniProt P10275, T878A)",
  "T1 construct": "LNCaP cells express an endogenous mutant AR that is found in prostate cancer patients; host or cells: LNCaP",
  "T1 sequence (P10275 1-920 T878A)": "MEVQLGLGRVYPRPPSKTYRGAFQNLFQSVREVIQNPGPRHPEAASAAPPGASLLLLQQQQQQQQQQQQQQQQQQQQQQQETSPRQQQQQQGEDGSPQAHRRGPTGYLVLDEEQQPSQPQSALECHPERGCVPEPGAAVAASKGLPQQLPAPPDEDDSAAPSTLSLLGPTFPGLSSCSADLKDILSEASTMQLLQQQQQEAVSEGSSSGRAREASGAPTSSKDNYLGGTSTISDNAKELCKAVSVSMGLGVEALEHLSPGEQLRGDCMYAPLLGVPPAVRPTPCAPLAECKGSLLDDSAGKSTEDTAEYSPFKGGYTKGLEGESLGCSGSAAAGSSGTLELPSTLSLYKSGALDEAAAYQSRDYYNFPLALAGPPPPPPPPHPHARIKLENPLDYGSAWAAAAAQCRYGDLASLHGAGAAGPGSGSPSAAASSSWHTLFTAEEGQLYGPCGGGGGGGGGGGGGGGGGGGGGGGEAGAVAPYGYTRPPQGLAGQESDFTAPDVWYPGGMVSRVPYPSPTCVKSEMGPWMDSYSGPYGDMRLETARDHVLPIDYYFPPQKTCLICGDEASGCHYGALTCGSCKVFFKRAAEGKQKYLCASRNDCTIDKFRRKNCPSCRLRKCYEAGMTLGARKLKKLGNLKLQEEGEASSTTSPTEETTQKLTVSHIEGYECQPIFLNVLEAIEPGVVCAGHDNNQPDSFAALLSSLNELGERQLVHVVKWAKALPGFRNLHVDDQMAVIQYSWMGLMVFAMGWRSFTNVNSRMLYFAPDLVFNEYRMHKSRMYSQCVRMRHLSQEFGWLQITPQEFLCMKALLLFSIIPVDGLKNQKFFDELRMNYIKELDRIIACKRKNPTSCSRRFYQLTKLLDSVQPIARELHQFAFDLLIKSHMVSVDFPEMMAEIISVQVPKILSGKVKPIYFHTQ",
  "experiment": "Western blot analysis of AR expression in JC9-treated LNCaP cells over 5 days",
  "format": "cell-based",
  "excerpt": "A Western blot method suitable for detecting degradation of the androgen receptor (AR) has been previously described (Su et al., 1999). Briefly, cells (for example, LNCap cells) are harvested either in 2× sodium dodecyl sulfate (SDS) loading buffer or in radioimmunoprecipitation assay (RIPA) lysis buffer (see “Antibodies: A Laboratory Manual”, E. Harlow and D. Lane, Cold Spring Harbor Laboratory, 1988) containing 10 micrograms/milliliter of benzamidine, 10 micrograms/milliliter of trypsin inhibitor, and 1 millimolar of phenylmethylsulfonyl fluoride (PMSF). Total protein (40 micrograms/sample, or as desired) from cell lysate is separated on a SDS-PAGE gel. […] The membrane is rinsed with PBST, and a suitable visualization procedure is used to detect the secondary antibody (for example, horseradish peroxidase can be detected with a colorimetric substrate or by a chemiluminescent substrate such as that provided by the enhanced chemiluminescence (ECL Plus) kit from Amersham). […] Quantification of the protein signals can be carried out by densitometry, using appropriate software (ImageJ software from the National Institutes of Health).\nAR is the key factor in regulating prostate cancer cells' response to androgens. […] A color detection method was subsequently employed to examine AR and actin protein signals in the membranes, and the resultant protein signals were quantitated by densitometry. […]",
  "data": [
    {"smiles": "COc1ccc(C=CC(=O)C=C(O)C=Cc2ccc(OC)c(OC)c2)cc1OC", "note": "[JC9, 5-hydroxy-1,7-bis(3,4-dimethoxyphenyl)-1,4,6-heptatrien-3-one]", "values": [
      {"measurement": "time at which AR reduction was first observed", "setting": "5 μM JC9, continuous incubation", "result": 2, "unit": "days"},
      {"measurement": "AR level remaining (normalized AR signal, percentage of baseline Day 0)", "setting": "5 μM JC9, end of 5-day incubation", "result": "~10", "unit": "%"}
    ]}
  ]
}
